# How the values were obtained:
# CD146-positive TSPC = experiment: CD146 immunostaining of TSPC in injured Achilles tendon; format: in vivo, rat; details: 1 week after wounding; peptide/alginate gel; vehicle/alginate 38.3±7.8
# Experimental: (A) Representative CD146-stained longitudinal sections. (Original magnification×200). (B) The number of CD146-positive TSPC per 200×field of view on injured tendon sections. Data are reported as mean±SE. Total CD146^+ cells were evaluated from 6 sections/tendon specimen, with 3 rats in each group. *P<0.001 versus vehicle/alginate-treated tendon; #p <0.001 versus 29-mer/alginate-treated tendon.
# To investigate the effects of the 29-mer peptide on tendon healing, a rat model of Achilles tendon injury was established as reported by Orhan et al. (The effect of extracorporeal shock waves on a rat model of injury to tendon Achilles. A histological and biomechanical study. J. Bone Joint Surg. Br. 2004;.86(4):.613-618). Adult 10-week-old male Sprague-Dawley rats (initial body weight=312±11 g) were anesthetized by an intraperitoneal injection of xylazine (10 mg/kg). Then, the left tendo Achilles injury was created by full-thickness insertion of an 18-G needle through tendo Achilles 1 cm proximal to the calcaneum attachment site. This created a horizontal wound that was flanked by intact tendon tissue to prevent the retraction of severed ends. […]
# CD146 is one of the TSPC markers. […] To test the mechanism of the 29-mer-induced tendon repair, CD146 immunostaining of TSPC located at injured tendon was measured, at 1 week after wounding. […]
# cyclin D1 = experiment: Western blot analysis of cyclin D1 expression in TSPC; format: cell-based, rabbit; details: TSPC treated 24 h; compared with solvent-treated cells; normalized to β-actin
# Experimental: Primary rabbit TSPC were treated with 10NM 29-mer or its variants for 24 h. Representative blots (A) and densitometric analysis with the SD (B) from three independent experiments are shown. Cyclin D1 expression was normalized to ([…]. *P<0.01 vs. solvent-treated cells. ^#P<0.05 vs. 29-mer-treated cells.
# Achilles tendons from New Zealand White rabbits (6-8 months old, 3.0-4.0 kg) were used in this study. Achilles tendons were washed two times with sterile phosphate-buffered saline (PBS) containing 50 μg/ml gentamicin. The tendon and tendon sheath were cut into small pieces (1-2 mm^3). Each 100 mg of fragment was then digested in a solution containing 3 mg/ml of type I collagenase and 4 mg/ml of dispase in 1 ml balance salt solution (BSS; Alcone) at 37° C. for 4 hours. The digested tissues were washed three times with PBS and collected by centrifugation (800 g for 10 min). The digested tissues were placed in tissue-culture plates (Falcon Labware; NJ, USA) and resuspended in high-glucose DMEM supplemented with 10% FBS and 50 μg/ml gentamycin, and maintained at 37° C. with 5% CO2. After 5 days, the medium was changed to remove the loosened tissue residues. Subsequently, tendon cells were incubated with 10% FBS medium for 2 days, and then cultured with a basal medium (2% FBS, 1% ITSE, 300 μg/ml L-glutamine, 1% antibiotic-antimicotic solutions) for further 10 days. Culture medium was changed every 3 days. For passage, tendon cells were harvested with 0.25% trypsin/EDTA, cell counting by haemocytometer, approximately 5×10^3 cells were seeded in each well of a 96-well cell culture plate or 2×10^5 cells were seeded in each well of a 6-well cell culture plate for 24 h. These expanded tendon cells were then treated with 10 μM 29-mer or its variants in fresh basal medium for further 24 h and subjected to cell proliferation assay and western blot analysis, respectively.
# Cell lysis, SDS-PAGE, and antibodies used for immunoblotting were performed as described (Ho et al., 15-deoxy-Delta(12,14)-prostaglandin J2 induces vascular endothelial cell apoptosis through the sequential activation of MAPKS and p53. J Biol. Chem., 2008; 283(44): 30273-30288). The band intensity in immunoblot was evaluated with a Model GS-700 imaging densitometer (Bio-Rad Laboratories, Hercules, Calif.) and analyzed using Labworks 4.0 software.
# However, the 29-mer effect on cyclin D1 protein induction was almost abolished by alanine/glycine replacement at residue S93, A96, Q98, 1103, 1104 and R106, respectively (1.3±0.1, 1.5±0.3, 1.3±0.1, 0.9±0.1, 1.3±0.2, and 1.0±0.3). […] The data also imply that the PDSP at positions Ser93, Ala96, Gln98, Ile103, Ile104, and Arg106 are important for sustaining the PDSP effect on induction of TSPC proliferation.
# injured Achilles tendon = experiment: Rat model of Achilles tendon injury, histology (H&E) and histopathological score; format: in vivo; details: 1 week postoperative
# Text: Representative micrographs of the histopathological analysis by H&E staining. H&E-stained sections in higher magnification show uninjured tendon tissue with a relative scarcity of cells among the collagen fibers.
# (A) Representative H&E-stained longitudinal sections in higher magnification show the nuclei morphologies in uninjured tendon tissue and injured tendon treated with vehicle/alginate and 29-mer/alginate for 1 week. (B) Histopathological scores. Total scores were determining by fiber structure, fiber arrangement, rounding of the nuclei, resident cell density and inflammation (infiltration of inflammatory cells, neovascularization and fatty deposits). Data are reported as mean±SE. *P<0.0005 versus vehicle/alginate-treated tendon; ^#P<0.05 versus 29-mer/alginate-treated tendon.
# To investigate the effects of the 29-mer peptide on tendon healing, a rat model of Achilles tendon injury was established as reported by Orhan et al. (The effect of extracorporeal shock waves on a rat model of injury to tendon Achilles. A histological and biomechanical study. J. Bone Joint Surg. Br. 2004;.86(4):.613-618). Adult 10-week-old male Sprague-Dawley rats (initial body weight=312±11 g) were anesthetized by an intraperitoneal injection of xylazine (10 mg/kg). Then, the left tendo Achilles injury was created by full-thickness insertion of an 18-G needle through tendo Achilles 1 cm proximal to the calcaneum attachment site. This created a horizontal wound that was flanked by intact tendon tissue to prevent the retraction of severed ends. The skin incision was closed after the wound was irrigated with sterile saline. Treatments were applied to area around the tendon lesion by subcutaneous injection with 150 μl of alginate gel mixed with 100 μM 29-mer or DMSO vehicle (six rats per experimental condition).
# The tendon and surrounding soft tissue were dissected. Specimens were fixed in a 4% paraformaldehyde (PFA) solution and then were embedded in paraffin blocks. Sections (5 μm in thickness) were longitudinally cut and stained with hematoxylin and eosin (H&E) or used for immunohistochemical examination. 36 sections per tendon were carefully prepared so as to include the most severely degenerated area. Images were captured using a Nikon Eclipse 80i microscope (Nikon Corporation, Tokyo, Japan) equipped with a Leica DC 500 camera (Leica Microsystems, Wetzlar, Germany). Four sections of each sample containing injured tendon tissues were selected and evaluated by two blinded observers to assess the tendon morphology according to a modified semi-quantitative grading score from 0 to 3 proposed by Chen et al. (Tendon derived stem cells promote platelet-rich plasma healing in collagenase-induced rat Achilles tendinopathy. Cell Physiol. Biochem., 2014; 34(6): 2153-68). The scores analyzed the fiber structure (0-3), fiber arrangement (0-3), rounding of the nuclei (0-3), resident cell density (0-3), and inflammation (0-3; infiltration of inflammatory cells, neovascularization and fatty deposits). According to this grading system, a perfectly normal tendon obtained a score of 0, whereas a score of 15 was assigned to maximally abnormal tendons.
# To investigate the therapeutic effect of the 29-mer peptide on injured tendon, a rat model of Achilles tendon injury was established by full-thickness insertion of an 18-G needle through the tendon Achilles. We delivered the 29-mer in a 150 μl alginate gel, which releases 90% loaded 29-mer in 5 days as described in a previous protocol (Ho et al., PEDF-derived peptide promotes skeletal muscle regeneration through its mitogenic effect on muscle progenitor cells. Am J Physiol. Cell Physiol. 2015 Aug. 1; 309(3): C159-68).
substance,measurement,setting,value
"H105A: 29-mer variant with single alanine alteration at residue 105 (SLGAEQRTESIIARALYYDLISSPDIHGT; UniProt P36955 93-121, looked up, variant H105A)",number of CD146-positive TSPC on injured tendon sections,CD146-positive TSPC,88.5±7.8 cells per 200× field
same,induction of the cyclin D1 protein,cyclin D1,2.7±0.3 fold
same,total histopathological score,"injured Achilles tendon; peptide/alginate gel, 0 = normal tendon, 15 = maximally abnormal, vehicle/alginate 12.7±0.6",7.8±0.7
same,histological appearance of treated tendon (H&E staining),injured Achilles tendon; subcutaneous 150 μl alginate gel with 100 μM peptide,uniform appearance of well-aligned collagen fibers and no degenerative events similar to the 29-mer treatment

# From patent US20210244791A1, “APPLICATION OF PEDF-DERIVED SHORT PEPTIDES IN TENDON HEALING” (BRIM Biotechnology, Inc., priority 2018, published 2021)
